Measured values as given in paper PMC3155243 (Molecular cancer therapeutics, 2011).
Values belong to the molecule of their own block, whether it stands above or below them.

Key:
[1] = with bortezomib and paclitaxel; cited from earlier work
[2] = human, in vivo
advanced solid tumours = conditions: bortezomib days 1, 4, 8 and 11 with paclitaxel days 1 and 8; cited from earlier work
proteasome = conditions: bortezomib dose 0.7 mg/m^2; cited from earlier work
[3] = system: BMK cancer cell lines and allograft tumors with RAS/RAF/MAPK pathway activation; conditions: baby mouse kidney (BMK) epithelial cell model; cited from earlier work
clinical = conditions: human, plasma, intravenous
[4] = Paclitaxel plasma pharmacokinetics
[5] = Dose Level 1: paclitaxel 40 mg/m^2 + bortezomib 0.7 mg/m^2
[6] = Dose Level 2: paclitaxel 45 mg/m^2 + bortezomib 0.75 mg/m^2
[7] = Dose Level 4: paclitaxel 60 mg/m^2 + bortezomib 1.0 mg/m^2

SMILES: N.N.O=C([O-])C1(C(=O)[O-])CCC1.[Pt+2] [carboplatin]
recommended phase II dose of carboplatin [1]: 6 AUC

SMILES: CC(C)C[C@H](NC(=O)[C@H](Cc1ccccc1)NC(=O)c1cnccn1)B(O)O [bortezomib]
MTD of bortezomib [2]: 1.0 mg/m^2
recommended phase II dose of bortezomib (advanced solid tumours): 1.3 mg/m^2
effect on proteasome function (proteasome): effectively inhibit proteasome function

Tmax (clinical): 1 h
clearance (clinical): 283 to 800 mL/min
AUC (last) [4, 5]: 1140 ± 450 ng·h/mL
T1/2 [4, 5]: 1.75 ± 1.45 h
AUC (last) [4, 6]: 1430 ± 900 ng·h/mL
T1/2 [4, 6]: 0.69 ± 0.20 h
AUC (last) ([4]; Dose Level 3: paclitaxel 51 mg/m^2 + bortezomib 0.86 mg/m^2): 1700 ± 370 ng·h/mL
AUC (last) [4, 7]: 2290 ± 740 ng·h/mL
T1/2 [4, 7]: 1.83 ± 0.86 h
clearance [4, 7]: 27.2 L/h
SMILES: CC(=O)O[C@H]1C(=O)[C@@]2(C)[C@H]([C@H](OC(=O)c3ccccc3)[C@]3(O)C[C@H](OC(=O)[C@H](O)[C@@H](NC(=O)c4ccccc4)c4ccccc4)C(C)=C1C3(C)C)[C@]1(OC(C)=O)CO[C@@H]1C[C@@H]2O [paclitaxel]
effect on BIM [3]: induced selective BIM accumulation
